Entries after “also recorded” stand apart in the source; their conditions may differ.
Key:
[1] = tested on: human HIP iPSCs (CyD clone 2G11); experiment: Cytosine deaminase kill switch: s.c. HIP-CyD iPSCs in NSG mice; type: in vivo
Experimental: (§1) Subcutaneous. Healthy male NSG mice were anesthetized via isoflurane inhalation anesthesia in a knockdown chamber. The anesthetized mice were removed from the chamber and placed in a supine position. The injection site (right inguinal area) was sprayed with 70% EtOH. Cells were injected subcutaneously proximal to the inguinal region.
(§2) Mice were anesthetized via isoflurane inhalation anesthesia and injected intraperitoneally (IP) with 250 μl luciferin (45.45 mg/ml). The mice were then positioned in a nose cone in the bioluminescence chamber (anesthesia was maintained at 1.5% with 500 ml oxygen/min). The mice were imaged for 180 seconds. A circle was drawn around the region of interest (ROI) giving a reading of photons/sec of emitted light.
Human HIP iPSCs (CyD clone 2G11) were injected subcutaneously into Group 1 NSG mice. Flucytosine LD (200 mg/kg) treatment was administered daily intraperitoneally. […] Group 1 mice treatment was as follows: 1×10^6 hiPSC HIP CyD clone 2G11 in diluted MG, S.C.; treatment=200 mg/kg/day Flucytosine, IP (DO).

[2] = tested on: human HIP iPSCs (clone 15; no kill switch); experiment: s.c. HIP iPSCs without kill switch in NSG mice treated with pro-drug; type: in vivo
Experimental: as §1, §2
Human HIP iPSCs (clone 15; no kill switch) were injected subcutaneously into Group 6 NSG mice. Flucytosine HD (500 mg/kg) treatment was administered daily intraperitoneally. As shown in FIG. 81A-B, human HIP iPSC survival appeared to be impaired by flucytosine HD although cells had no kill switch. The group was expanded for data validation (FIG. 81C-D and FIG. 81E-F). […]
Human HIP iPSCs (clone 15; no kill switch) were injected subcutaneously into Group 6 NSG mice. Ganciclovir HD (75 mg/kg) treatment was administered daily intraperitoneally starting Day 0. […]

[3] = tested on: human HIP iPSCs (HSVTk clone 1-B10); experiment: HsVtk kill switch: s.c. HIP-HsVtk iPSCs in NSG mice; type: in vivo
Experimental: as §1, §2
Human HIP iPSCs (HSVTk clone 1-B10) were injected subcutaneously into Group 1 NSG mice. Ganciclovir LD (50 mg/kg) treatment was performed daily intraperitoneally. […] Mice were checked during a 44D follow up. Group 1 mice treatment was as follows: 1×10^6 hiPSCs HIP HSVtk clone 1-B10 luc+ in diluted MG, S.C.; treatment was 50 mg/kg/day Ganciclovir, IP (DO).

[4] = intravenous, cited from earlier work
[5] = tested on: HIP CD19CAR-T cells (B2M−/−, CIITA−/−, TRAC−/−, CD19-specific CAR-CD47 T cells); experiment: Innate killing (NK cells, macrophages) by real-time cell analysis, HIP CAR-T cells; type: cell-based, human; conditions: pretreated with CD47 blocking antibody, E:T 1:1
Experimental: Briefly, T-cells were plated in CD19^+ tumor cell specific media. After cell index value reached 0.7, human NK cells or human macrophages were added with an E:T ratio of 1:1 with human IL-2 for NK cells and without IL-2 for macrophages. […] Data were standardized and analyzed with the real-time cell analysis instrument software.
After about 48 hours, T-cells were collected and stained with components of a live/dead cell viability staining assay. Briefly, cells were stained with calcein AM and ethidium homodimer-1 according to the manufacturer's protocol. The analysis was performed by flow cytometry and the results were expressed as percentage of dead cells.

mock transfected T cells = experiment: Innate killing by real-time cell analysis, mock transfected T cells; type: cell-based, human; conditions: in the presence of the antibody
human HIP iPSCs [6] = experiment: In vitro killing of human HIP iPSCs by human NK cells and macrophages with anti-CD47 antibody; type: cell-based; conditions: 100 μg/ml antibody
human HIP iPSCs [7] = experiment: Subcutaneous human HIP iPSCs in NSG mice with adoptive transfer of human NK cells, BLI; type: in vivo
Experimental: as §1
The mice were then positioned in a nose cone in the bioluminescence chamber (anesthesia was maintained at 1.5% with 500 ml oxygen/min). The mice were imaged for 180 seconds. A circle was drawn around the region of interest (ROI) giving a reading of photons/sec of emitted light.
IP dosing. The antibody (100 μl) was injected into the peritoneal cavity from the ventral surface by piercing the skin and muscle layers.
SC dosing. Mice were anesthetized via isoflurane inhalation anesthesia and placed in a supine position. The injection site (right inguinal area) was sprayed with 70% EtOH and the antibody (100 μl) was injected into the area of the implanted cells.

## Nc1[nH]c(=O)ncc1F [Flucytosine]
[1]; HD 500 mg/kg daily intraperitoneally from D0
  time to killing of HIP-CyD iPSCs: 16 to 32 days
[1]; HD 500 mg/kg daily intraperitoneally from Day 13
  time to killing of HIP-CyD iPSCs after starting treatment: 3 to 11 days
[1]; LD 200 mg/kg daily intraperitoneally from D0
  time to killing of HIP-CyD iPSCs: 16 to 44 days
[1]; LD 200 mg/kg daily intraperitoneally from Day 13
  time to killing of HIP-CyD iPSCs after starting treatment: 3 to 11 days
[1]; treatment from D0
  benefit of HD as compared to LD: No major benefit
[1]; treatment from Day 13
  benefit of HD compared to LD: No benefit
[2]; Flucytosine HD 500 mg/kg daily intraperitoneally
  survival of HIP iPSCs without kill switch: impaired

## Nc1nc(O)c2ncn(COC(CO)CO)c2n1 [Ganciclovir]
[2]; Ganciclovir HD 75 mg/kg daily intraperitoneally from Day 0
  impact on HIP iPSCs without kill switch: no killing; also recorded: no impact
[3]; HD 75 mg/kg daily intraperitoneally from D0
  time to killing of HIP-HsVtk iPSCs: 12 to 16 days
[3]; HD 75 mg/kg daily intraperitoneally from Day 13
  time to killing of HIP-HsVtk iPSCs after start of treatment: ≤ 7 days
[3]; LD 50 mg/kg daily intraperitoneally from D0
  time to killing of HIP-HsVtk iPSCs: 12 to 24 days
[3]; LD 50 mg/kg daily intraperitoneally from Day 13
  time to killing of HIP-HsVtk iPSCs after start of treatment: ≤ 7 days
[3]; treatment from D0
  benefit of HD: slightly beneficial
[3]; treatment from Day 13
  benefit of HD compared to LD: No obvious benefit

## TTI-621: fusion protein of N-terminal V domain of human SIRPα fused to human IgG1 Fc region (SEQ ID NO:133)
[4]; monotherapy, relapsed/refractory hematologic malignancies and selected solid tumors
  maximum tolerated dose (MTD): 0.2 mg/kg
[4]; phase 1
  tolerability: well tolerated

B1: magrolimab: anti-CD47 antibody magrolimab (Hu5F9-G4) (Forty Seven, Inc.; Gilead Sciences, Inc.) (antibody, chains of the INN, looked up, V domains shown)
VH: QVQLVQSGAEVKKPGASVKVSCKASGYTFTNYNMHWVRQAPGQRLEWMGTIYPGNDDTSYNQKFKDRVTITADTSASTAYMELSSLRSEDTAVYYCARGGYRAMDYWGQGTLVTVSS
VL: DIVMTQSPLSLPVTPGEPASISCRSSQSIVYSNGNTYLGWYLQKPGQSPQLLIYKVSNRFSGVPDRFSGSGSGTDFTLKISRVEAEDVGVYYCFQGSHVPYTFGQGTKLEIK
[5]
  killing of HIP CAR-T cells by macrophages and NK cells on CD47 blocking: susceptible to macrophage and NK cell killing
[5]; listed as macrolimab
  killing of HIP CAR-T cells by macrophages and NK cells on CD47 blocking: induced killing
Mock transfected T cells
  killing of mock transfected T cells by NK cell and macrophages: not killed
Human HIP iPSCs [6]
  killing of human HIP iPSCs by human NK cells: killing
  killing of human HIP iPSCs by human macrophages: killing
Human HIP iPSCs [7]; magrolimab D0-D10, 5×10^4 iPSCs, 1×10^6 NK cells
  killing of HIP iPSCs: killing of HIP iPSCs
Human HIP iPSCs [7]; magrolimab stopped after D10, 6-month follow up
  re-appearance of iPSCs: didn't re-appear

From patent publication US20250320290A1, “METHODS FOR TRIGGERING SAFETY KILLING […] USING A CD47-SIRPalpha BLOCKADE AGENT” (Sana Biotechnology, Inc., priority 2020, published 2025)
